Several values for one entry are separate records, joined by “and”; a condition that tells them apart may be missing. Identical values can stand only once. Like-named read-outs stand apart in the source and are kept apart here.
Molecular target: C. elegans (N2) complex I (NADH:ubiquinone oxidoreductase) (Caenorhabditis elegans, UniProt P24887+Q93873+Q94360)
Assay: biochemical
Type: biochemical
In short: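 Compounds were tested against freeze-thawed isolated mitochondria (0.2 mg/mL protein). NADH:decylubiquinone activity was monitored via DCIP absorbance at 600 nm, and the initial linear slope was normalised to solvent controls.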

[1] = wild-type C. elegans, mean of replicates, read-out: in vitro complex I activity relative to solvent control, Mean
[2] = wild-type C. elegans, single replicate, read-out: in vitro complex I activity relative to solvent control, individual replicate

Sequence of C. elegans (N2) complex I (NADH:ubiquinone oxidoreductase) (Q94360 17-199): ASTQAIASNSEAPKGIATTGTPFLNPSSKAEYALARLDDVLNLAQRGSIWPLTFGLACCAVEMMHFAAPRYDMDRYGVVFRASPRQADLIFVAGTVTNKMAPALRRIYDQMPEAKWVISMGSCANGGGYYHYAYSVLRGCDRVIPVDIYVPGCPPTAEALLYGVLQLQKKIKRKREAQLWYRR
Sequence of C. elegans (N2) complex I (NADH:ubiquinone oxidoreductase) (P24887 whole entry): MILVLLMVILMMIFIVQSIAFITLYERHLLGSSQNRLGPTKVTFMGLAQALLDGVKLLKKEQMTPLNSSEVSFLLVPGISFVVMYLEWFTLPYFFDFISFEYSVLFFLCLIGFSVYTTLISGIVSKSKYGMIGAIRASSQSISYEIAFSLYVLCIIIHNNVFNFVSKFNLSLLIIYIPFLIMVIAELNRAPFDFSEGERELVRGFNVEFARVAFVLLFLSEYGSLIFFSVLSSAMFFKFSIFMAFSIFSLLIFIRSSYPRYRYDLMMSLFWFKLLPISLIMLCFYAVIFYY
Sequence of C. elegans (N2) complex I (NADH:ubiquinone oxidoreductase) (Q93873 31-482): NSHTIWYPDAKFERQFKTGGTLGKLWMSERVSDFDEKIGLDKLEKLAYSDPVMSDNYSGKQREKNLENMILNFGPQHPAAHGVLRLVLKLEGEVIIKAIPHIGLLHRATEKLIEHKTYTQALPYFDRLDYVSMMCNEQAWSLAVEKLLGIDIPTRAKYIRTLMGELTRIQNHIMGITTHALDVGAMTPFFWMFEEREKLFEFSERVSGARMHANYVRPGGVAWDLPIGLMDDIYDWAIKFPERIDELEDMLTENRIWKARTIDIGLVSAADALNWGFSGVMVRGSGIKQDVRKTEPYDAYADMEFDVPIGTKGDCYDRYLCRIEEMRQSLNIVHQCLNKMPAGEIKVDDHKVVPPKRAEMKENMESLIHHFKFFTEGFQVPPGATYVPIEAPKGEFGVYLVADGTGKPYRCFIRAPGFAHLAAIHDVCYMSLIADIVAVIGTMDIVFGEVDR

C=C(C)[C@H]1Cc2c(ccc3c2O[C@@H]2COc4cc(OC)c(OC)cc4[C@@H]2C3=O)O1 [Rotenone, reference compound]
activity at 100 µM (100 µM compound, relative to solvent control, mean (SEM), read-out: % Activity Complex I): 0% | activity at 100 µM (100 μM inhibitor, in vitro activity relative to solvent control, N2 C. elegans mitochondria, single replicate, read-out: CI Activity): 0% | activity at 100 µM (100 μM of NPD compound, C. elegans mitochondria, individual biological replicates, read-out: Percent in vitro activity, Complex I (single replicate Rep1-Rep4)): 0% | activity at 100 µM (100 μM of NPD compound, C. elegans mitochondria, mean of four biological replicates, read-out: Percent in vitro activity, Complex I (Mean)): 0% | Absorbance DCIP [600nm], complex I (30 s, single replicate): 1.265 and 1.244 and 1.248 | Absorbance DCIP [600nm], complex I (60 s, single replicate): 1.261 and 1.240 and 1.243 | Absorbance DCIP [600nm], complex I (90 s, single replicate): 1.257 and 1.236 and 1.240 | Absorbance DCIP [600nm], complex I (120 s, single replicate): 1.252 and 1.232 and 1.237 | Absorbance DCIP [600nm], complex I (150 s, single replicate): 1.248 and 1.229 and 1.234 | Absorbance DCIP [600nm], complex I (180 s, single replicate): 1.244 and 1.226 and 1.230 | Absorbance DCIP [600nm], complex I (210 s, single replicate): 1.240 and 1.223 and 1.227 | Absorbance DCIP [600nm], complex I (240 s, single replicate): 1.237 and 1.219 and 1.223 | Absorbance DCIP [600nm], complex I (270 s, single replicate): 1.233 and 1.216 and 1.220 and 1.199 | Absorbance DCIP [600nm], complex I (300 s, single replicate): 1.229 and 1.212 and 1.216 and 1.196 | Absorbance DCIP [600nm], complex I (330 s, single replicate): 1.225 and 1.209 and 1.213 and 1.193 | Absorbance DCIP [600nm], complex I (360 s, single replicate): 1.221 and 1.206 and 1.210 and 1.190 | Absorbance DCIP [600nm], complex I (390 s, single replicate): 1.218 and 1.203 and 1.206 and 1.187 | Absorbance DCIP [600nm], complex I (420 s, single replicate): 1.214 and 1.199 and 1.203 and 1.185 | Absorbance DCIP [600nm], complex I (450 s, single replicate): 1.210 and 1.196 and 1.200 and 1.182 | Absorbance DCIP [600nm], complex I (480 s, single replicate): 1.206 and 1.193 and 1.197 and 1.179 | Absorbance DCIP [600nm], complex I (510 s, single replicate): 1.203 and 1.190 and 1.193 and 1.176 | Absorbance DCIP [600nm], complex I (540 s, single replicate): 1.199 and 1.187 and 1.190 and 1.174 | Absorbance DCIP [600nm], complex I (570 s, single replicate): 1.195 and 1.183 and 1.187 | Absorbance DCIP [600nm], complex I (600 s, single replicate): 1.192 and 1.180 and 1.184 | Absorbance DCIP [600nm], complex I (630 s, single replicate): 1.188 and 1.177 and 1.181 | Absorbance DCIP [600nm], complex I (660 s, single replicate): 1.185 and 1.174 and 1.177 | Absorbance DCIP [600nm], complex I (690 s, single replicate): 1.181 and 1.171 and 1.174 | Absorbance DCIP [600nm], complex I (720 s, single replicate): 1.178 and 1.168 and 1.171 | Absorbance DCIP [600nm], complex I (750 s, single replicate): 1.174 and 1.164 and 1.168 | Absorbance DCIP [600nm], complex I (780 s, single replicate): 1.171 and 1.161 and 1.165 | Absorbance DCIP [600nm], complex I (810 s, single replicate): 1.167 and 1.158 and 1.162 | Absorbance DCIP [600nm], complex I (840 s, single replicate): 1.164 and 1.155 and 1.159 | Absorbance DCIP [600nm], complex I (870 s, single replicate): 1.161 and 1.152 and 1.156 | Absorbance DCIP [600nm], complex I (900 s, single replicate): 1.157 and 1.149 and 1.153 | remaining activity at 0.0001 µM [1]: 95.7% | remaining activity at 0.0001 µM [2]: 90.6% | remaining activity at 0.0005 µM [1]: 104% | remaining activity at 0.0005 µM [2]: 108% | remaining activity at 0.001 µM (dose 0.001 µM, wild-type C. elegans, mean of replicates, read-out: in vitro complex I activity relative to solvent control, Mean): 104% | remaining activity at 0.0025 µM [1]: 110% | remaining activity at 0.0025 µM [2]: 108% | remaining activity at 0.005 µM [1]: 101% | remaining activity at 0.005 µM [2]: 97% | remaining activity at 0.013 µM [1]: 90.6% | remaining activity at 0.013 µM [2]: 89.2% | remaining activity at 0.025 µM (dose 0.025 µM, wild-type C. elegans, mean of replicates, read-out: in vitro complex I activity relative to solvent control, Mean): 89.6% | remaining activity at 0.063 µM [1]: 27% | remaining activity at 0.063 µM [2]: 21.5% | remaining activity at 0.125 µM [1]: 26.8% | remaining activity at 0.125 µM [2]: 17.8% | remaining activity at 0.313 µM (dose 0.313 µM, wild-type C. elegans, mean of replicates, read-out: in vitro complex I activity relative to solvent control, Mean): 0.682% | remaining activity at 0.625 µM (dose 0.625 µM, wild-type C. elegans, mean of replicates, read-out: in vitro complex I activity relative to solvent control, Mean): 0.888% | remaining activity at 1.5 µM (dose 1.5 µM, wild-type C. elegans, mean of replicates, read-out: in vitro complex I activity relative to solvent control, Mean): 7.71% | remaining activity at 3 µM (dose 3 µM, wild-type C. elegans, mean of replicates, read-out: in vitro complex I activity relative to solvent control, Mean): 5.32% | remaining activity at 15 µM (dose 15 µM, wild-type C. elegans, mean of replicates, read-out: in vitro complex I activity relative to solvent control, Mean): 5.62% | remaining activity at 37.5 µM (dose 37.5 µM, wild-type C. elegans, mean of replicates, read-out: in vitro complex I activity relative to solvent control, Mean): 6.72% | remaining activity at 75 µM (dose 75 µM, wild-type C. elegans, mean of replicates, read-out: in vitro complex I activity relative to solvent control, Mean): 3.64% | IC50 (wild-type (N2) mitochondria, read-out: C. elegans Complex I IC50): 0.045 µM

Source: paper PMC11079024, “Identification of a family of species-selective complex I inhibitors as potential anthelmintics” (Nature Communications, 2024)
